Measurements as given in patent publication US5021421A, “2-(1-Piperazinyl)-4-phenylcycloalkanopyridine derivatives, processes for the production thereof, and pharmaceutical composition containing the same” (Dainippon Pharmaceutical Co., Ltd., priority 1989, dated 1991).
Read-outs that look alike come from different tables or passages of the source. One block for each molecule: values may come before it.

Legend:
[1] = system: exploratory activity; test: Inhibitory effect on exploratory activity (Animex activity meter); type: in vivo, mice (Std-ddy strain); conditions: oral, 2 h after administration, 3 min counting; dose not given
Experimental: A group of 5 male mice (Std-ddy strain, 20-25 g) was used. Two hours after oral administration of the test compound, mice were placed individually in a test box (23×35×30 cm) on Animex activity meter (Farad Co.). Immediately thereafter, activity counting was started and lasted for three minutes. The mean counts of the compound-treated group were compared with those of the corresponding control (non-dosed) group, and the percent inhibition was calculated.

[2] = molecular target: T1, dopamine (D2) receptor (Rattus norvegicus, UniProt P61169); test: In vitro binding to dopamine (D2) receptor, [3H] spiperone; set-up: species or system rats; conditions: [3H] spiperone, rat brain crude synaptosome fraction; read-out: IC50 D2
T1 construct: Crude synaptosome fractions were prepared from some brain regions in rats for receptor sources; from tissue
T1 sequence (P61169 whole entry): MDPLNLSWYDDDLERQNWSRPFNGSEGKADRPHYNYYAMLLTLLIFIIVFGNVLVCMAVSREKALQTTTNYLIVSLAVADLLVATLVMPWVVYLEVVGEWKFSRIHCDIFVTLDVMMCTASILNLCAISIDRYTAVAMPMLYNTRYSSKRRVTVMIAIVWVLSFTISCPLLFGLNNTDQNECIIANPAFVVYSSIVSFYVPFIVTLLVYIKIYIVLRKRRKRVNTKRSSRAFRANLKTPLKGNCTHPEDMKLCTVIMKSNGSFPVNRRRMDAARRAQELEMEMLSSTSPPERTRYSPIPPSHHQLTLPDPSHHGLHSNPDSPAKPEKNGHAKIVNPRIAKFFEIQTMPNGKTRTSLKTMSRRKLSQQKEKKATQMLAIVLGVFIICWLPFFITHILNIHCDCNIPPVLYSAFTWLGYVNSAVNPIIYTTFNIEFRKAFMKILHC
Experimental: (§1) Dopamine (D2), serotonin (S1, S2) and adrenaline (α1) receptor binding assays were carried out according to the methods of I. Creese et al. [Eur. J. Pharmacol., 46, 377 (1977), S. J. Peroutka et al. [Mol. Pharmacol. 16, 687 (1979)], J. E. Leysen et al. [Mol. Pharmacol., 21, 301 (1982)] and D. C. U'Prichard et al. [Mol. Pharmacol., 13, 454 (1977)], respectively.
(§2) Crude synaptosome fractions were prepared from some brain regions in rats for receptor sources. Radioactive ligands used were [^3 H] spiperone (D2), [^3 H] serotonin (S1), [^3 H] ketanserin (S2) and [^3 H] WB-4101 (α1). The binding assay was performed by incubating aliquots of synaptosome fraction in buffer solution (final volume: 1 ml) containing a [^3 H] labelled ligand and a test compound. The assay was terminated by rapid filtration through Whatman GF/B glass fiber filters attached to a cell-harvester (Brandel) and radioactivity on the filters was counted in a Packard Triscarb scintillation counter. Specific binding was calculated as a difference between amounts of radioactivity in the presence and absence of an unlabelled ligand [spiperone (D2), serotonin (S1), methysergide (S2) and prazosin (α1)]. The IC50 value of the test compounds (concentration causing 50% inhibition of [^3 H] ligand specific binding) was determined by probit analysis.

[3] = molecular target: T2, serotonin (S2) receptor (Rattus norvegicus, UniProt P14842); test: In vitro binding to serotonin (S2) receptor, [3H] ketanserin; set-up: species or system rats; conditions: [3H] ketanserin, rat brain crude synaptosome fraction
T2 construct: Crude synaptosome fractions were prepared from some brain regions in rats for receptor sources; from tissue
T2 sequence (P14842 whole entry): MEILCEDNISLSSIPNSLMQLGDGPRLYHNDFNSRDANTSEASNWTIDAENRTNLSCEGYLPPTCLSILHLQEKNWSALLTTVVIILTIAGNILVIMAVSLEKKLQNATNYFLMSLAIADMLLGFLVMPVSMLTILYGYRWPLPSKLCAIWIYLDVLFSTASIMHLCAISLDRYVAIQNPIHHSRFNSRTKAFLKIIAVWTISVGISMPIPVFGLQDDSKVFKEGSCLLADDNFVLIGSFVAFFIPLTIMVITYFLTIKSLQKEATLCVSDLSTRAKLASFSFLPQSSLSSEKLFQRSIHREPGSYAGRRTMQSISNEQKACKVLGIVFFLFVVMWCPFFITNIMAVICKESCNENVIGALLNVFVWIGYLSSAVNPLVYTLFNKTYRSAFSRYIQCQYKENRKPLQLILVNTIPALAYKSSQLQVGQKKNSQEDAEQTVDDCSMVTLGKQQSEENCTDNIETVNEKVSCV
Experimental: as §1, §2

[4] = molecular target: adrenaline (α1) receptor; test: In vitro binding to adrenaline (α1) receptor, [3H] WB-4101; set-up: species or system rats; conditions: [3H] WB-4101, rat brain crude synaptosome fraction
Experimental: as §1, §2

[5] = system: apomorphine-induced vomiting; test: Antagonistic effect on apomorphine-induced vomiting; type: in vivo, dogs (Beagle); conditions: Canis lupus familiaris, sc, apomorphine 0.3 mg/kg s.c. 2 h after compound, read-out: Inhibitory ratio (apomorphine-induced vomiting)
Experimental: A group of 3-4 dogs (Beagle, 8-15 kg) was used for examining effects on the test compounds on apomorphine-induced vomiting, a known test for evaluating neuroleptic drugs.
Each dog was given a subcutaneous injection of apomorphine hydrochloride (0.3 mg/kg) two hours after the treatment of the test compounds. Then, the frequency of oral vomiting was counted for one hour. The mean counts of the compound-treated group were compared with those of the corresponding control (non-dosed) group, and the percent inhibition was calculated.

[6] = system: brain monoamine metabolites; test: Increasing effect on concentration of brain monoamine metabolites; type: in vivo, mice (Std-ddy strain); conditions: Mus musculus, 2 h, non-dosed=100
Experimental: A group of 5 male mice (Std-ddy strain, 25-30 g) was used for examining effect of the test compounds on concentration of brain monoamine metabolites.
Mice were killed by decapitation 2 hours after treatment with the test compounds. Brains were quickly taken out, homogenized in 1N formic acid-acetone solution, and centrifuged in a refrigerated ultracentrifuge. The supernatant was evaporated by blowing with N2 gas. Then, the residue was again resolved in 0.01 N acetic acid, and served for determining concentration of dopamine metabolites, 3,4-dihydroxyphenylacetic acid (DOPAC) and homovanillic acid (HVA), a norepinephrine metabolite, 3-methyl-4-hydroxyphenylethylene glycol (MOPEG), and a serotonin metabolite, 5-hydroxyindole-3-acetic acid (5-HIAA) concentrations by HPLC with electrochemical detection. The effect of the test compounds on concentration of each monoamine metabolite is shown as % of control (level of non-dosed animals=100) in Table 4.

[7] = read-out: 5-HIAA concentration, % of control
[8] = read-out: DOPAC concentration, % of control
[9] = read-out: HVA concentration, % of control

Compound: CCN1CCN(c2cc(-c3ccc(F)cc3F)c3c(n2)CCCCCC3)CC1 [Example 2a, 2-(4-ethyl-1-piperazinyl)-4-(2,4-difluorophenyl)-5,6,7,8,9,10-hexahydrocycloocta[b] pyridine]
Inhibitory ratio (exploratory activity) [1]: 77.5%
IC50 [2]: 24 nM
IC50 [3]: 28 nM
IC50 [4]: 88 nM

Compound: OCCN1CCN(c2cc(-c3ccc(F)cc3)c3c(n2)CCC3)CC1 [Example 7, 2-[4-(2-Hydroxyethyl)-1-piperazinyl]-4-(4-fluoro-phenyl)-6,7-dihydro-5H-1-pyrindine]
inhibition in vivo at 1 mg/kg [5]: 80%
IC50 [2]: 30 nM
IC50 [3]: 9.5 nM

Compound: CCN1CCN(c2cc(-c3ccc(Cl)cc3)c3c(n2)CCCCC3)CC1 [Example 31]
Inhibitory ratio (exploratory activity) [1]: 62.5%

Compound: CCN1CCN(c2cc(-c3ccccc3)c3c(n2)CCCCCC3)CC1 [Example 36]
Inhibitory ratio (exploratory activity) [1]: 68.4%
inhibition in vivo at 0.5 mg/kg [5]: 81%

Compound: Fc1ccc(-c2cc(N3CCN(C4CCCC4)CC3)nc3c2CCCCCC3)cc1 [Example 38]
Inhibitory ratio (exploratory activity) [1]: 58.9%

Compound: OCCN1CCN(c2cc(-c3ccc(F)cc3F)c3c(n2)CCCCCC3)CC1 [Example 53]
Inhibitory ratio (exploratory activity) [1]: 68.1%

Compound: CCN1CCN(c2cc(-c3ccccc3)c3c(n2)CCC(C)C3)CC1 (stereo not drawn) [Example 57]
Inhibitory ratio (exploratory activity) [1]: 77.2%

Compound: CCN1CCN(c2cc(-c3ccccc3)c3c(n2)C2CCC3C2)CC1 (stereo not drawn) [Example 71]
Inhibitory ratio (exploratory activity) [1]: 61.9%
inhibition in vivo at 3 mg/kg [5]: 84%
IC50 [2]: 25 nM
IC50 [3]: 14 nM
IC50 [4]: 13 nM

Compound: CCN1CCN(c2cc(-c3ccc(F)cc3)c3c(n2)C2CCC3C2)CC1 (stereo not drawn) [Example 73]
inhibition in vivo at 1 mg/kg [5]: 100%
IC50 [2]: 18 nM
IC50 [3]: 2.4 nM
IC50 [4]: 4.6 nM

Compound: CCN1CCN(c2cc(-c3ccc(F)cc3)c3c(n2)C2CCC3CC2)CC1 [Example 75]
Inhibitory ratio (exploratory activity) [1]: 78.9%

Compound: CC1CN(c2cc(-c3ccc(F)cc3)c3c(n2)CCCCCC3)CCN1 (stereo not drawn) [Example 83, 2-(3-Methyl-1-piperazinyl)-4-(4-fluorophenyl)-5,6,7,8,9,10-hexahydrocycloocta[b]pyridine]
Inhibitory ratio (exploratory activity) [1]: 53.5%

Compound: c1ccc(-c2cc(N3CCNCC3)nc3c2CCCCCC3)cc1 [Example 103]
IC50 [2]: 140 nM
IC50 [3]: 41 nM

Compound: Fc1ccc(-c2cc(N3CCNCC3)nc3c2CCCCCC3)c(F)c1 [Example 106]
Inhibitory ratio (exploratory activity) [1]: 74.9%

Compound: c1ccc(-c2cc(N3CCNCC3)nc3c2C2CCC3C2)cc1 (stereo not drawn) [Example 107]
Inhibitory ratio (exploratory activity) [1]: 53.2%

Compound: CN1CCN(c2cc(-c3ccc(F)cc3)c3c(n2)CCC3)CC1 [Example 111, 2-(4-methyl-1-piperazinyl)-4-(4-fluorophenyl)-6,7-dihydro-5H-1-pyrindine]
Inhibitory ratio (exploratory activity) [1]: 74.0%

Compound: CN1CCN(c2cc(-c3ccc(F)cc3)c3c(n2)CCCCCC3)CC1.O=C(O)/C=C\C(=O)O.O=C(O)/C=C\C(=O)O [Example 112, 2-(4-Methyl-1-piperazinyl)-4-(4-fluorophenyl)-5,6,7,8,9,10-hexahydrocycloocta[b]pyridine dimaleate]
Inhibitory ratio (exploratory activity) [1]: 73.2%
inhibition in vivo at 0.2 mg/kg [5]: 94%

Compound: CN1CCN(c2cc(-c3ccc(F)cc3F)c3c(n2)CCCCCC3)CC1 [Example 114, 2-(4-Methyl-1-piperazinyl)-4-(2,4-difluorophenyl)-5,6,7,8,9,10-hexahydrocycloocta[b]pyridine]
Inhibitory ratio (exploratory activity) [1]: 81.9%
inhibition in vivo at 0.2 mg/kg [5]: 89%

Compound: CCCN1CCN(c2cc(-c3ccc(F)cc3)c3c(n2)CCCCCC3)CC1 [Example 118, 2-(4-n-propyl-1-piperazinyl)-4-(4-fluorophenyl)-5,6,7,8,9,10-hexahydrocycloocta[b]pyridine]
inhibition in vivo at 0.3 mg/kg ([5]; dose 0.3 mg/kg): 94%
response vs control in vivo at 3 mg/kg [6, 7]: 110%
response vs control in vivo at 3 mg/kg [6, 8]: 302%
response vs control in vivo at 3 mg/kg [6, 9]: 250%
response vs control in vivo at 3 mg/kg ([6]; read-out: MOPEG concentration, % of control): 129%

Compound: CC(C)N1CCN(c2cc(-c3ccc(F)cc3)c3c(n2)CCCCCC3)CC1 [Example 121]
inhibition in vivo at 0.5 mg/kg [5]: 93%
response vs control in vivo at 10 mg/kg [6, 7]: 111%
response vs control in vivo at 10 mg/kg [6, 8]: 312%
response vs control in vivo at 10 mg/kg [6, 9]: 215%

Compound: CCCCN1CCN(c2cc(-c3ccc(F)cc3)c3c(n2)CCCCCC3)CC1 [Example 122, 2-(4-n-Butyl-1-piperazinyl)-4-(4-fluorophenyl)-5,6,7,8,9,10-hexahydrocycloocta[b]pyridine]
Inhibitory ratio (exploratory activity) [1]: 81.3%
inhibition in vivo at 0.5 mg/kg [5]: 100%
response vs control in vivo at 2 mg/kg [6, 7]: 100%
response vs control in vivo at 2 mg/kg [6, 8]: 306%
response vs control in vivo at 2 mg/kg [6, 9]: 229%

Compound: CCCCCN1CCN(c2cc(-c3ccc(F)cc3)c3c(n2)CCCCCC3)CC1 [Example 123, 2-(4-n-Pentyl-1-piperazinyl)-4-(4-fluorophenyl)-5,6,7,8,9,10-hexahydrocycloocta[b]pyridine]
Inhibitory ratio (exploratory activity) [1]: 72.2%

Compound: C=CCN1CCN(c2cc(-c3ccc(F)cc3)c3c(n2)CCCCCC3)CC1 [Example 125]
Inhibitory ratio (exploratory activity) [1]: 57.9%

Compound: CCCN1CCN(c2cc(-c3ccc(F)cc3F)c3c(n2)CCCCCC3)CC1 [Example 127, 2-(4-n-propyl-1-piperazinyl)-4-(2,4-difluorophenyl)-5,6,7,8,9,10-hexahydrocycloocta[b]pyridine]
Inhibitory ratio (exploratory activity) [1]: 80.3%

IC50 [2]: > 10000 nM
Compound: COc1ccc(-c2cc(N3CCN(c4ccccc4)CC3)nc(C)c2-c2ccc(OC)cc2)cc1 [Test Compound B, 4,5-Bis-(4-methoxyphenyl)-6-methyl-2-(4-phenylpiperazino)pyridine, reference compound]
inhibition in vivo at 3 mg/kg [5]: 13%

IC50 [2]: > 10000 nM
Compound: Cc1nc(N2CCN(c3ccccc3)CC2)cc(-c2ccc(O)cc2)c1-c1ccc(O)cc1 [Test Compound C, 4,5-Bis-(4-hydroxyphenyl)-6-methyl-2-(4-phenylpiperazino)pyridine, reference compound]
inhibition in vivo at 3 mg/kg [5]: 16%
